Tests used:
Assay in all cases: Cell panel nuclear dye assay
Format in all cases: cell-based
ST486 = conditions: Homo sapiens, 120 h, Lymphoma (Burkitt's), 5-day incubation
Experimental: (§1) Cells were grown in RPMI1640, 10% FBS, 2 mM L-alanyl-L-glutamine, 1 mM Na pyruvate, or a special medium. Cells were seeded into 384-well plates and incubated in a humidified atmosphere of 5% CO2 at 37° C. Compound was added the day following cell seeding. At the same time, a time zero untreated cell plate was generated. After a 5-day incubation period, cells were fixed and stained to allow fluorescence imaging of nuclei.
(§2) Compounds were serially diluted in 2-fold steps from the highest test concentration specified, and assayed over 10 concentrations with a maximum assay concentration of 0.1% DMSO. Automated fluorescence microscopy was carried out using a Molecular Devices ImageXpress Micro XL high-content imager, and images were collected with a 4× objective. 16-bit TIFF images were acquired and analyzed with MetaXpress 5.1.0.41 software.
(§3) Cell proliferation was measured by the fluorescence intensity of an incorporated nuclear dye. The output is referred to as the relative cell count, where the measured nuclear intensity is transformed to percent of control (POC) using the following formula: […]
(§4) Cell count IC50 is the test compound concentration at 50% of maximal possible response. EC50 is the test compound concentration at the curve inflection point or half the effective response (parameter C of the fitted curve solution). GI50 is the concentration needed to reduce the observed growth by half (midway between the curve maximum and the time zero value). Activity area is an estimate of the integrated area above the curve. Activity area values range from 0-10, where a value of zero indicates no inhibition of proliferation at all concentrations, and a value of 10 indicates complete inhibition of proliferation at all concentrations. In rare instances, values <0 or >10 may be observed. In these instances, values <0 should be considered as equivalent to 0, whereas values >10 should be considered equivalent to 10.

SU-DHL-10 = conditions: Homo sapiens, SU-DHL10, 120 h, Lymphoma (large cell), 5-day incubation
Experimental: as §1, §2, §3, §4

Colo 320DM = conditions: Homo sapiens, 120 h, Colon, 5-day incubation
Experimental: as §1, §2, §3, §4

SJRH30 = conditions: Homo sapiens, 120 h, Sarcoma (rhabdomyosarcoma), 5-day incubation
Experimental: as §1, §2, §3, §4

U-87 MG = conditions: Homo sapiens, 120 h, Glioma (glioblastoma), 5-day incubation
Experimental: as §1, §2, §3, §4

Hs 294T = conditions: Homo sapiens, 120 h, Melanoma, 5-day incubation
Experimental: as §1, §2, §3, §4

BFTC-905 = conditions: Homo sapiens, 120 h, Bladder, 5-day incubation
Experimental: as §1, §2, §3, §4

647-V = conditions: Homo sapiens, 120 h, Bladder, 5-day incubation
Experimental: as §1, §2, §3, §4

SK-LMS-1 = conditions: Homo sapiens, 120 h, Sarcoma (leiomyosarcoma), 5-day incubation
Experimental: as §1, §2, §3, §4

SaOS2 = conditions: Homo sapiens, SAOS-2, 120 h, Osteosarcoma, 5-day incubation
Experimental: as §1, §2, §3, §4

M059J = conditions: Homo sapiens, 120 h, Glioma (glioblastoma), 5-day incubation
Experimental: as §1, §2, §3, §4

VA-ES-BJ = conditions: 120 h, Sarcoma (epitheloid), 5-day incubation
Experimental: as §1, §2, §3, §4

C32TG = conditions: 120 h, Melanoma, 5-day incubation
Experimental: as §1, §2, §3, §4

NCI-H661 = conditions: Homo sapiens, 120 h, Lung (NSCLC), 5-day incubation
Experimental: as §1, §2, §3, §4

DMS53 = conditions: Homo sapiens, DMS-53, 120 h, Lung (SCLC), 5-day incubation
Experimental: as §1, §2, §3, §4

SW1783 = conditions: Homo sapiens, 120 h, Glioma (astrocytoma), 5-day incubation
Experimental: as §1, §2, §3, §4

SCC-4 = conditions: Homo sapiens, 120 h, Head & neck (squamous cell carcinoma, tongue), 5-day incubation
Experimental: as §1, §2, §3, §4

C32 = conditions: Homo sapiens, 120 h, Melanoma, 5-day incubation
Experimental: as §1, §2, §3, §4

MT-3 = conditions: 120 h, Colon, 5-day incubation
Experimental: as §1, §2, §3, §4

CCF-STTG1 = conditions: Homo sapiens, 120 h, Glioma (astrocytoma), 5-day incubation
Experimental: as §1, §2, §3, §4

639-V = conditions: Homo sapiens, 120 h, Bladder (ureter), 5-day incubation
Experimental: as §1, §2, §3, §4

DB = conditions: Homo sapiens, 120 h, Lymphoma (B-cell), 5-day incubation
Experimental: as §1, §2, §3, §4

DBTRG-05MG = conditions: Homo sapiens, 120 h, Glioma (glioblastoma multiforme), 5-day incubation
Experimental: as §1, §2, §3, §4

BC-1 = conditions: Homo sapiens, BC1, 120 h, Lymphoma (B-cell), 5-day incubation
Experimental: as §1, §2, §3, §4

SU-DHL-8 = conditions: Homo sapiens, 120 h, Lymphoma (large cell), 5-day incubation
Experimental: as §1, §2, §3, §4

In the case of `NC(=O)c1ncn2c(=O)n(CCOC(F)(F)F)nnc12` [Compound I-1, 4-Oxo-3-(2-(trifluoromethoxy)ethyl)-3,4-dihydroimidazo[5,1-d][1,2,3,5]tetrazine-8-carboxamide], the EC50 (ST486) is reported as ≤ 30 µM, the IC50 (ST486) is reported as ≤ 30 µM and the EC50 (SU-DHL-10) is reported as ≤ 30 µM. For the same molecule, the IC50 (SU-DHL-10) was 30 to 70 µM, the EC50 (Colo 320DM) was 30 to 70 µM and the IC50 (Colo 320DM) was 30 to 70 µM. For the same molecule, the EC50 (SJRH30) was ≤ 30 µM, the IC50 (SJRH30) was ≤ 30 µM and the EC50 (U-87 MG) was 30 to 70 µM. For the same molecule, the IC50 (U-87 MG) was 70 to 150 µM, the EC50 (Hs 294T) was ≤ 30 µM and the IC50 (Hs 294T) was ≤ 30 µM. The EC50 (BFTC-905) was 30 to 70 µM, the IC50 (BFTC-905) was 30 to 70 µM and the EC50 (647-V) was 30 to 70 µM. The IC50 (647-V) was 30 to 70 µM, the EC50 (SK-LMS-1) was 30 to 70 µM and the IC50 (SK-LMS-1) was 30 to 70 µM. For the same molecule, the EC50 (SaOS2) was ≤ 30 µM, the IC50 (SaOS2) was ≤ 30 µM and the EC50 (M059J) was 30 to 70 µM. The IC50 (M059J) was 30 to 70 µM, the EC50 (VA-ES-BJ) was 70 to 150 µM and the IC50 (VA-ES-BJ) was > 150 µM. The EC50 (C32TG) was ≤ 30 µM, the IC50 (C32TG) was ≤ 30 µM and the EC50 (NCI-H661) was ≤ 30 µM. The IC50 (NCI-H661) was > 150 µM, the EC50 (DMS53) was ≤ 30 µM and the IC50 (DMS53) was ≤ 30 µM. The EC50 (SW1783) was 70 to 150 µM, the IC50 (SW1783) was 70 to 150 µM and the EC50 (SCC-4) was ≤ 30 µM. For the same molecule, the IC50 (SCC-4) was > 150 µM, the EC50 (C32) was 30 to 70 µM and the IC50 (C32) was 70 to 150 µM. The EC50 (MT-3) was ≤ 30 µM, the IC50 (MT-3) was ≤ 30 µM and the EC50 (CCF-STTG1) was ≤ 30 µM. For the same molecule, the IC50 (CCF-STTG1) was 30 to 70 µM, the EC50 (639-V) was ≤ 30 µM and the IC50 (639-V) was ≤ 30 µM. The EC50 (DB) was ≤ 30 µM, the IC50 (DB) was 30 to 70 µM and the EC50 (DBTRG-05MG) was ≤ 30 µM. The IC50 (DBTRG-05MG) was ≤ 30 µM, the EC50 (BC-1) was ≤ 30 µM and the IC50 (BC-1) was ≤ 30 µM. For the same molecule, the EC50 (SU-DHL-8) was ≤ 30 µM and the IC50 (SU-DHL-8) was ≤ 30 µM.
